The test system of the assay is postsynaptic QUIS-R of locust leg muscle. Kind of assay: Antagonism of neurally-evoked twitch contraction of locust retractor unguis nerve-muscle preparation. The following applies: for IC50: read-out: IC50. Details: species or system Schistocerca gregaria. The text has this: Electrophysiological studies. The metathoracic retractor unguis nerve-muscle preparation of the locust Schistocerca gregaria was dissected and mounted in a small Perspex bath as described previously (21). The pharmacological activity on the locust nerve muscle preparation, using reduction in neurally evoked twitch amplitude as the measure of activity. Ten fractions were pharmacologically active. […] Further purification of this fraction by reverse-phase HPLC gave four peaks (FIG. 2B), the most pharmacologically was in the major peak (hatched FIG. 2B) . This fraction gave 1.1 mg of toxin as amorphous powder.
The retractor unguis muscle and its nerve were dissected from the metathoracic legs of adult, female locusts (Schistocerca gregaria) and mounted in a Perspex perfusion chamber as described by Usherwood and Machili (21) and Bateman, et al. (14). The muscle was stretched to maximal body length and attached at its tendon or apodeme to a Grass FT 10-strain gauge by a short length of nylon thread. The volume of the muscle bath was about 0.5 ml and its contents could be exchanged within 1 sec. The preparation was perfused continuously at the rate of 5-10 ml min^-1 (except during the application of toxin (see below)) with standard locust saline of the following composition (mM): NaCl, 180; KCl, 10; CaCl2, 2; Hepes, 10; buffered to pH 6.8. The retractor unguis muscle is innervated by two excitatory motoneurons (30) and an inhibitory motoneuron (19,32), but the influence of the latter on the responsiveness of the muscle is slight. Maximal stimulation of the retractor unguis nerve at 0.2 Hz produced a series of twitch contractions of constant amplitude, which were maintained for many hours in good preparations. The test compounds were kept at -20° C. They were dissolved in locust saline on the day of the assay and tested at room temperature. The compounds were applied by pipette to a nerve-muscle preparation such that the contents of the perfusion bath were completely replaced by the test solution. Exposure to the test compound lasted 20 min. Because of the limited availability of some of the compounds, the preparation was not perfused during this period. However, the amplitude of the retractor unguis muscle twitch rarely changed by more than 5-10% over a 20 minute period. During application of the test solutions the stimulation frequency was raised to 0.6 Hz for brief periods to test for stimulus frequency-dependent effects on twitch amplitude (31,37). Dose-inhibition data were obtained by testing the effects, on single retractor unguis muscle preparations, of a range of concentrations of the test compounds. Each concentration of the respective samples was tested at least thee times, and each compound was assayed usually over a 100-fold concentration range (a total of 7-10 concentrations). The standard deviations for twitch inhibition for any given concentration of a toxin rarely exceed 10%. Those compounds for which the deviation was greater than this are identified in Tables 1-7. There was some variation in the potency of PhTX-343 and the test compounds between nerve-muscle preparations. In order to compensate for this, the following procedure was adopted: PhTX-343 was assayed at a variety of concentrations on eight retractor unguis nerve-muscle preparations to give a cumulative dose-inhibition relationship for this toxin. The concentration of PhTX-343 which reduced the twitch contraction by 50% (IC50) was then determined by fitting a curve to the data using the following equation: [formula] where: [T]= toxin concentration, I= % inhibition, Imax =maximum inhibition= 100% and n' represents the Hill slope coefficient. […] The ratio of the actual reduction in twitch amplitude obtained with this single concentration of PhTX-343 and the 50% reduction that was anticipated from the cumulative dose-inhibition relationship for this toxin, was then used as a factor to normalize the data for the test compound. […]

Where [1] appears, read: Table 3, region C modifications.
[2] abbreviates: Table 3, relative to PhTX-343 = 1.0.
Setting [3] is: Table 1, region A modifications, 20 min exposure, normalized with PhTX-343, ** SD < 30%.
[4] abbreviates: Table 1, relative to PhTX-343 = 1.0.
Setting [5] is: Table 2, region B modifications, * SD < 20%.
Setting [6] is: Table 2, relative to PhTX-343 = 1.0.
[7] abbreviates: Table 4, terminal amino group modifications, * SD < 20%.
[8] abbreviates: Table 4, relative to PhTX-343 = 1.0.
The mark [9] stands for this setting: Table 7, bis-acyl spermine analogues.

Molecules are shown by their SMILES. Read-outs that look alike come from different tables or passages of the source.

Regarding `NCCCNCCCCNCCCNC(=O)[C@H](Cc1ccc(O)cc1)NC(=O)/C=C/c1ccccc1` [Compound 25], the “potency compared with PhTX-343 or other analogues (in words)” value is reported as “greatly increased potency”.

The term IC50 denotes the point on the concentration scale where inhibition reaches its midpoint. `NCCCNCCCCNCCCNC(=O)[C@H](Cc1ccc(O)cc1)NC(=O)/C=C/c1ccccc1` [drawing 49]: the IC50 under setting [1] was found to be 2 µM. The “Relative Potency” value under setting [2] is 12.0.

As for `C/C=C/C=C/C(=O)N[C@@H](Cc1ccc(O)cc1)C(=O)NCCCNCCCCNCCCN` [drawing 45], the IC50 under setting [1] came out at 1.6 µM. Moreover, under setting [2], the “Relative Potency” value turned out to be 14.0.

With `CCCC(=O)N[C@@H](Cc1ccc(O)cc1)C(=O)NCCCCN` [drawing 25], under setting [3], the concentration for half-maximal inhibition (IC50) turned out to be 2000 µM. In addition, the “Relative Potency” value under setting [4] worked out at 0.01.

Regarding `[N-]=[N+]=C(C(=O)NCCCC(=O)N[C@@H](Cc1ccc(O)cc1)C(=O)NCCCNCCCCNCCCN)C(F)(F)F` [Compound 27], the “potency compared with PhTX-343 or other analogues (in words)” value is on record as “only weakly active”.

For `CCCC(=O)N[C@@H](Cc1c[nH]c2ccccc12)C(=O)NCCCNCCCCNCCCN` [drawing 39], the IC50 under setting [5] stood at 2.5 µM. Further, under setting [6], the “Relative Potency” value is 9.2.

On to `CCCC(=O)N[C@@H](CC(C)C)C(=O)NCCCNCCCCNCCCN` [Compound 14], for which the “potency compared with PhTX-343 or other analogues (in words)” value is given as “unchanged”.

As for `NCCCNCCCCNCCCNC(=O)[C@H](Cc1ccc(O)cc1)NC(=O)C1CCCCC1` [Compound 22], the “potency compared with PhTX-343 or other analogues (in words)” value was “equal to that of compound 19”.

Regarding `CCCC(=O)N[C@@H](Cc1ccc(O)cc1)C(=O)NCCCNCCCCNCCCNC(=O)C(N)CCCCN` (some centres unmarked) [Compound 35], the “potency compared with PhTX-343 or other analogues (in words)” value is recorded as “increased potency”.

`CCCC(=O)N[C@@H](Cc1ccc(O)cc1)C(=O)NCCCNCCCCNCCCNC(=O)CN` [Compound 33]: the “potency compared with PhTX-343 or other analogues (in words)” value is recorded as “potency was reduced”.

Regarding `CCCC(=O)N[C@@H](Cc1ccc(O)cc1)C(=O)NCCCNCCCCNCCCNC(=O)CN` [drawing 59], the 50% inhibitory concentration (IC50) under setting [7] amounted to 100 µM. The “Relative Potency” value under setting [8] is recorded as 0.2.

Regarding `CCCC(=O)NCCCNCCCCNCCCNC(=O)CCC` [Compound 50], the “potency compared with PhTX-343 or other analogues (in words)” value was “low potencies”. Further, the half-maximal inhibitory concentration (IC50) under setting [9] turned out to be 2300 µM. For the same compound, the Relative Potency (Table 7, bis-acyl spermine analogues, relative to PhTX-343) is 0.1.

Turning to `CCCC(=O)N[C@@H](Cc1cc(I)c(O)c(I)c1)C(=O)NCCCNCCCCNCCCNC(=O)[C@@H](N)CCCCN` [Compound 38, diiodo-PhTX-lysine], the “potency compared with PhTX-343 or other analogues (in words)” value is “more potent than PhTX-343”.

For `CCCC(=O)N[C@@H](Cc1ccc(O)cc1)C(=O)NCCCNCCCCNCCCNC(=O)C(N)CCCCNC(=O)C(N)CCCCN` (some centres unmarked) [drawing 63], the IC50 under setting [7] was found to be 11 µM. Besides, under setting [8], the “Relative Potency” value turned out to be 2.1.

In the case of `CCCCC(CNCCCN)CNCCCCNC(=O)[C@H](Cc1ccc(O)cc1)NC(=O)CCC` (some centres unmarked) [Compound 8, PhTX-(butyl)433], the “potency compared with PhTX-343 or other analogues (in words)” value is given as “increased potency by almost six-fold”.

As for `CCCC(=O)N[C@@H](Cc1ccc(O)cc1)C(=O)NCCCNCCCNCCCCN` [drawing 23], the IC50 under setting [3] was found to be 15 µM. For the same compound, the “Relative Potency” value under setting [4] is reported as 1.5.

On to `CCCC(=O)N[C@@H](C)C(=O)NCCCNCCCCNCCCN` [drawing 37], for which, under setting [5], the IC50 was found to be 45 µM. For the same compound, under setting [6], the “Relative Potency” value is on record as 0.5.

For the compound `NCCCNCCCCNCCCNC(=O)[C@H](Cc1ccc(O)cc1)NC(=O)c1ccccc1` [drawing 47], the 50% inhibitory concentration (IC50) under setting [1] was found to be 2.83 µM. Further, under setting [2], the “Relative Potency” value is given as 8.2.

For the compound `[N-]=[N+]=Nc1ccc(C(=O)N[C@@H](Cc2ccc(O)cc2)C(=O)NCCCNCCCCNCCCN)cc1` [drawing 50], the IC50 under setting [1] amounted to 4.2 µM. Under setting [2], the “Relative Potency” value came out at 5.5.

For `NCCCNCCCCNCCCNC(=O)[C@H](Cc1ccc(O)cc1)NC(=O)CCCCC1SCC2NC(=O)NC21` (some centres unmarked) [Compound 30], under setting [1], the “IC50 (M)” value is listed as “insol”.

With `CCCC(=O)N[C@@H](Cc1ccc(O)cc1)C(=O)NCCCCN` [Compound 5, PhTX-4], the “potency compared with PhTX-343 or other analogues (in words)” value is reported as “reduced potency”.

For the compound `[N-]=[N+]=Nc1ccc(C(=O)N[C@@H](Cc2ccc(O)cc2)C(=O)NCCCNCCCCNCCCN)cc1` [Compound 26], the “potency compared with PhTX-343 or other analogues (in words)” value was “reasonably active”.

As to `CCCC(=O)N[C@@H](Cc1cc(I)c(O)c(I)c1)C(=O)NCCCNCCCCNCCCNC(=O)[C@@H](N)CCCNC(=N)N` [drawing 66], under “Table 5, modifications to more than one region”, the half-maximal inhibitory concentration (IC50) was 0.7 µM. Moreover, the “Relative Potency” value (Table 5, relative to PhTX-343) is reported as 33.

`CCCC(=O)N[C@@H](Cc1ccc(OC(C)=O)cc1)C(=O)NCCCNCCCCNCCCN` [Compound 11]: the “potency compared with PhTX-343 or other analogues (in words)” value was “unchanged potencies”.

`CCCCCCC(=O)NCCCNCCCCNCCCNC(=O)CCCCCC`: the “IC50 (M)” value under setting [9] was “agonist”.

As to `CCCCCCC(=O)NCCCNCCCCNCCCN` [Compound 48, Heptanoylspermine-amide], the “potency compared with PhTX-343 or other analogues (in words)” value is recorded as “low potencies”.

As for `CCCC(=O)N[C@@H](Cc1ccc(O)cc1)C(=O)NCCCCNCCCN` [drawing 24], the IC50 under setting [3] stood at 39 µM. In addition, the “Relative Potency” value under setting [4] came to 0.6.

For `CCCC(=O)N[C@@H](Cc1ccc(O)cc1)C(=O)NCCCNCCCCNCCCN` [drawing 57], under setting [7], the half-maximal inhibitory concentration (IC50) was 23 µM. Under setting [8], the “Relative Potency” value was determined as 1.0.

As to `CCCC(=O)NCC(=O)NCCCNCCCCNCCCN` [drawing 38], the half-maximal inhibitory concentration (IC50) under setting [5] is 130 µM. Also, the “Relative Potency” value under setting [6] was determined as 0.2.

On to `CCCC(=O)N[C@@H](Cc1ccc(O)cc1)C(=O)NCCC[N+](C)(C)CCCC[N+](C)(C)CCC[N+](C)(C)C` [Compound 9], for which the “potency compared with PhTX-343 or other analogues (in words)” value is listed as “reduced potency compared with PhTX-343”.

Turning to `CCCC(=O)N[C@@H](Cc1ccc(O)cc1)C(N)=O` [Compound 6, PhTX-0], the “potency compared with PhTX-343 or other analogues (in words)” value was “slightly more active than PhTX-4”.

As for `CCCC(=O)N[C@@H](Cc1ccc(O)cc1)C(=O)NCCCNCCCCNCCCNC(=O)C(N)CCCCN` (some centres unmarked) [drawing 61], the IC50 under setting [7] worked out at 13 µM. Under setting [8], the “Relative Potency” value was determined as 1.8.

In the case of `CCCC(=O)N[C@@H](Cc1ccc(O)cc1)C(=O)NCCCNCCCCNCCCNC(C)=O` [drawing 58], the IC50 under setting [7] was 300 µM. The “Relative Potency” value under setting [8] is reported as 0.08.

For the compound `CCCCCCCCCC(=O)N[C@@H](Cc1ccc(O)cc1)C(=O)NCCCNCCCCNCCCNC(=O)[C@H](Cc1ccc(O)cc1)NC(=O)CCCCCCCCC`, the “IC50 (M)” value (Table 6, bis analogues of PhTX-343) is “insol”.

Take `CCCC(=O)N[C@@H](Cc1c[nH]c2ccccc12)C(=O)NCCCNCCCCNCCCN` [Compound 17]: the “increase in potency compared with PhTX-343” value came to 10 fold.

Turning to `CCCC(=O)N[C@@H](Cc1ccc(OC(C)=O)cc1)C(=O)NCCCNCCCCNCCCN` [drawing 33], under setting [5], the IC50 was 33 µM. Besides, the “Relative Potency” value under setting [6] stood at 0.7.

`CCCC(=O)N[C@@H](Cc1ccc(O)cc1)C(N)=O` [drawing 26]: the 50% inhibitory concentration (IC50) under setting [3] amounted to 500 µM. Under setting [4], the “Relative Potency” value was determined as 0.05.

On to `NCCCNCCCCNCCCNC(=O)[C@H](Cc1ccc(O)cc1)NC(=O)Cc1ccccc1` [Compound 24], for which the “potency compared with PhTX-343 or other analogues (in words)” value is on record as “less potent than PhTX-343”.

Regarding `[N-]=[N+]=Nc1ccc(C(=O)N[C@@H](Cc2cc(I)c(O)c(I)c2)C(=O)NCCCNCCCCNCCCNC(=O)[C@@H](N)CCCCN)cc1` [Compound 41, N- (.rho.-azidobenzamide)-di-iodo-L-tyrosyl-spermine-L-lysine-triamide], the “potency compared with PhTX-343 or other analogues (in words)” value is given as “more potent than the latter”.

The values are drawn from US5770625A, “Butyryl-tyrosinyl spermine, analogs thereof and methods of preparing and using same” (priority 1994, dated 1998).
